Tests used:
H9C2 cells [1] = experiment: Toxicity on normal H9C2 cells (MTT assay); format: cell-based; settings: MTT; for viability at 6.25 µM / viability at 12.5 µM / viability at 25 µM / viability at 50 µM: H9C2 cells, read-out: Survival Rate (%); for IC50: normal H9C2 cells
Description: To study cytotoxicity on normal cells, the cytotoxicity of compounds against normal H9C2 cells were tested.
(§1) The SH-SY5Y ([…]) and H9C2 ([…]) cell lines were obtained from the Chinese Academy of Medical Sciences and Peking Union Medical College. All of the cell lines were grown in dulbecco’s modified eagle medium (DMEM) with 10% (v/v) fetal bovine serum (FBS) and 1% (v/v) penicillin/streptomycin (Thermo Technologies, New York, NY, USA), under a humidified atmosphere containing 5% CO2 at 37 °C. The baicalein derivatives were dissolved in DMSO (Sigma, St. Louis, MO, USA) and added at various concentrations to the cell culture.
(§2) The protective effect of these compounds was evaluated on SH-SY5Y and H9C2 cell lines via the MTT method. The cells growing in the logarithmic phase were cultured in 96-well plates at a density 3 × 10^3 cells/well and incubated for 24 h. Then each well was treated with the required concentrations (50 µM concentrations, 25 µM concentrations, 12.5µM concentrations, 6.25 µM concentrations, and 3.125 µM concentrations) of baicalein derivatives, and incubated 36 h at 37 °C with 5% CO2. After that, the cells were induced by H2O2 (final concentration, […]) for 12 h. Control-differentiated cells were injected with new growth media at equal amounts. Before […] MTT solution (5 mg/mL) was added to each well, the cell culture fluid was discarded, and […] fresh cell culture fluid was added. The plate was incubated for a further 4 h at 37 °C. The cell supernatant medium was removed carefully, without disturbing the attached cells, and formazan crystals were solubilized by adding 150 μL DMSO into each well. The absorbance was measured at 490 nm with a plate reader (BIORAD 550 spectrophotometer, Bio-rad Life Science Development Ltd., Beijing, China). H2O2 was dissolved in DMEM medium. Wells without drugs were used as blanks. The EC50 values were defined as the concentrations that causes the maximum effect of 50%; IC50 values were defined as the concentration of compound which gives 50% growth inhibition, and were calculated using the GraphPad Prism 5. The proliferation rates of damaged SH-SY5Y cells were calculated in the following formula (1): [OD490 (compound) − OD490 (CoCl2)]/[OD490 (NGF) − OD490 (CoCl2)] × 100%(1) The EC50 values were using the equation −pEC50 = log Cmax − log 2 × (ΣP − 0.75 + 0.25Pmax + 0.25Pmin)(2) where Cmax is the maximum concentration, ΣP is the sum of proliferation rates, Pmax is the maximum value of the proliferation rate, and Pmin is the minimum value of the proliferation rate. Cell viability was expressed as a percentage of the control.
The inhibition rate was calculated in the following equation: % inhibition = 1 − (Sample group OD/Control group OD) × 100%(3)

injured SH-SY5Y cells = experiment: Protective effect against tert-butyl hydroperoxide-induced SH-SY5Y neurotoxicity cells (MTT assay); format: cell-based; settings: Homo sapiens; for viability at 3.125 µM / viability at 6.25 µM / viability at 12.5 µM / viability at 25 µM / viability at 50 µM: injured SH-SY5Y cells, read-out: Proliferation Rate (%); for EC50: tert-butyl hydroperoxide-induced SH-SY5Y neurotoxicity, read-out: EC50 for protecting injured SH-SY5Y cells;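 as to Proliferation Rate (%): 0% equals CoCl2-injured cells and 100% equals NGF-treated cells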
Description: The protective effects of baicalein derivatives in vitro was evaluated against tert-butyl, hydroperoxide-induced, SH-SY5Y neurotoxicity cells using an MTT assay. In addition, their toxicity evaluation was tested on normal H9C2 cells. The resulting proliferation rates (%) at different concentrations, as well as their 50% effective concentrations (EC50) for protecting damaged SH-SY5Y cells of the baicalein amino acid derivatives, are summarized in Table 2.
as §1, §2

H9C2 cells [2] = experiment: Toxicity on normal H9C2 cells (MTT assay); format: cell-based; settings: read-out: Survival Rate (%)

SMILES | melting point [°C] | viability at 6.25 µM (H9C2 cells [1]) [%] | viability at 12.5 µM (H9C2 cells [1]) [%] | viability at 25 µM (H9C2 cells [1]) [%] | viability at 50 µM (H9C2 cells [1]) [%] | IC50 (H9C2 cells [1]) [µM] | viability at 3.125 µM (injured SH-SY5Y cells) [%] | viability at 6.25 µM (injured SH-SY5Y cells) [%] | viability at 12.5 µM (injured SH-SY5Y cells) [%] | viability at 25 µM (injured SH-SY5Y cells) [%] | viability at 50 µM (injured SH-SY5Y cells) [%] | EC50 (injured SH-SY5Y cells) [µM] | viability at 100 µM (H9C2 cells [2]) [%]
CN(CC(=O)Oc1cc2oc(-c3ccccc3)cc(=O)c2c(O)c1O)C(=O)OC(C)(C)C [Compound 5, 5,6-dihydroxy-4-oxo-2-phenyl-4H-chromen-7-yl 2{[(tert-butoxy)carbonyl](methyl)amino}acetate] | 218 | 116 | 116 | 105 | 95.1 | > 100 | 28.4 | 37.6 | 76.4 | 78.1 | 60.7 | 9.96 | 76.9
CC(C)(C)OC(=O)NC(Cc1ccccc1)C(=O)Oc1c(O)cc2oc(-c3ccccc3)cc(=O)c2c1O (stereo not shown) [Compound 6, 5,7-dihydroxy-4-oxo-2-phenyl-4H-chromen-6-yl 2-{[(tert-butoxy)carbonyl]amino}-3-phenylpropanoate] |  | 157 | 154 | 154 | 137 | > 100 | 8.61 | 20 | 24.8 | 21.6 | 16.7 | 42 | 122
CC1=NN(c2ccccc2)C(=O)C1 [Edaravone, reference compound] |  |  |  |  |  |  | 61.4 | 85.8 | 76.1 | 69.9 | 60.7 | 5.62 | 

Second part, led by results:

melting point [°C] | SMILES | viability at 6.25 µM (H9C2 cells [1]) [%] | viability at 12.5 µM (H9C2 cells [1]) [%] | viability at 25 µM (H9C2 cells [1]) [%] | viability at 50 µM (H9C2 cells [1]) [%] | IC50 (H9C2 cells [1]) [µM] | viability at 3.125 µM (injured SH-SY5Y cells) [%] | viability at 6.25 µM (injured SH-SY5Y cells) [%] | viability at 12.5 µM (injured SH-SY5Y cells) [%] | viability at 25 µM (injured SH-SY5Y cells) [%] | viability at 50 µM (injured SH-SY5Y cells) [%] | EC50 (injured SH-SY5Y cells) [µM] | viability at 100 µM (H9C2 cells [2]) [%]
157.8 | O=C(CC(NC(=O)OCc1ccccc1)C(=O)OCc1ccccc1)Oc1c(O)cc2oc(-c3ccccc3)cc(=O)c2c1O (stereo not shown) [Compound 4, 1-benzyl 5,7-dihydroxy-4-oxo-2-phenyl-4H-chromen-6-yl 2-{[(benzyloxy)carbonyl]amino} butanedioate] | 156 | 140 | 140 | 131 | > 100 | 59.1 | 94.1 | 77.7 | 70.2 | 54.8 | 5.51 | 126
155.7 | CCC(C)C(NC(=O)OCc1ccccc1)C(=O)Oc1cc2oc(-c3ccccc3)cc(=O)c2c(O)c1O (stereo not shown) [Compound 7, 5,6-dihydroxy-4-oxo-2-phenyl-4H-chromen-7-yl 2-{[(benzyloxy)carbonyl]amino}-3-methyl-pentanoate] | 152 | 147 | 145 | 139 | > 100 | 63.6 | 69.7 | 79.8 | 79.8 | 72.2 | 5.24 | 124
100.7 | O=C(CC(NC(=O)OCc1ccccc1)C(=O)Oc1c(O)cc2oc(-c3ccccc3)cc(=O)c2c1O)OCc1ccccc1 (stereo not shown) [Compound 9, 1-benzyl 5,7-dihydroxy-4-oxo-2-phenyl-4H-chromen-6-yl 3-{[(benzyloxy)carbonyl]amino} butanedioate] | 153 | 133 | 130 | 115 | > 100 | 28.1 | 98.2 | 79.6 | 101 | 84.2 | 4.47 | 107
